How the values were obtained:
LIM domain kinase 1 = LIM domain kinase 1 (Homo sapiens, UniProt P53667); assay: Inhibition of LIMK1 (unknown origin) by radiometric assay
LIM domain kinase 2 = LIM domain kinase 2 (Homo sapiens, UniProt P53671); assay: Inhibition of LIMK2 (unknown origin) by radiometric assay
[1] = target: Rho-associated protein kinase 2 (Homo sapiens, UniProt O75116); assay: Inhibition of ROCK2 (unknown origin) by radiometric assay
[2] = target: cAMP-dependent protein kinase (PKA) (Homo sapiens, UniProt P22694+P17612+P22612); assay: Inhibition of PKA (unknown origin) by radiometric assay; assay type: protein assay
[3] = target: RAC-alpha serine/threonine-protein kinase (Homo sapiens, UniProt P31749); assay: Inhibition of AKT1 (unknown origin) by radiometric assay
Chain of RAC-alpha serine/threonine-protein kinase (P31749 whole entry): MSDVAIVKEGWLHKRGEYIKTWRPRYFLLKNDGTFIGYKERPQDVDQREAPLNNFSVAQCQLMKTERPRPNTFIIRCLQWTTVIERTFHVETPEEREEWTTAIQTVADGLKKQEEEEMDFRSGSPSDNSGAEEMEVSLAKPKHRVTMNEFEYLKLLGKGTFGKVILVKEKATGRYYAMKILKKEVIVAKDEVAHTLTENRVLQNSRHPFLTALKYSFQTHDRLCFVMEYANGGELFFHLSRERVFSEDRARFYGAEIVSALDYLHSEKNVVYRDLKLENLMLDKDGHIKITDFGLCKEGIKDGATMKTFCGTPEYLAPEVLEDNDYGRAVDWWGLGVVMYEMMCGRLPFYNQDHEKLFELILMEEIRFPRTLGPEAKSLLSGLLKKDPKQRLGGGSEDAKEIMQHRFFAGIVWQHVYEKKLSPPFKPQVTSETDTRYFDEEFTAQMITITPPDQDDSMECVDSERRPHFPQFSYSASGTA

[4] = Inhibition of ROCK in rat A7r5 cells assessed as reduction in MLC Thr18/Ser19 phosphorylation by direct-ELISA method; assay type: cell-based
[5] = Inhibition of LIMK in human HeLa cells assessed as reduction in cofilin Ser3 phosphorylation by sandwich immunoassay; assay type: cell-based
Oryctolagus cuniculus = assay: Toxicity in ocular normotensive New Zealand White rabbit assessed as induction of conjunctival hyperemia at 200 µg/eye drop dosed as single topical administration measured 1 to 6 hrs post compound instillation; assay type: organism-based, Conjunctiva; conditions: in vivo, topical_or_ocular

Chain of Rho-associated protein kinase 2 (O75116 whole entry): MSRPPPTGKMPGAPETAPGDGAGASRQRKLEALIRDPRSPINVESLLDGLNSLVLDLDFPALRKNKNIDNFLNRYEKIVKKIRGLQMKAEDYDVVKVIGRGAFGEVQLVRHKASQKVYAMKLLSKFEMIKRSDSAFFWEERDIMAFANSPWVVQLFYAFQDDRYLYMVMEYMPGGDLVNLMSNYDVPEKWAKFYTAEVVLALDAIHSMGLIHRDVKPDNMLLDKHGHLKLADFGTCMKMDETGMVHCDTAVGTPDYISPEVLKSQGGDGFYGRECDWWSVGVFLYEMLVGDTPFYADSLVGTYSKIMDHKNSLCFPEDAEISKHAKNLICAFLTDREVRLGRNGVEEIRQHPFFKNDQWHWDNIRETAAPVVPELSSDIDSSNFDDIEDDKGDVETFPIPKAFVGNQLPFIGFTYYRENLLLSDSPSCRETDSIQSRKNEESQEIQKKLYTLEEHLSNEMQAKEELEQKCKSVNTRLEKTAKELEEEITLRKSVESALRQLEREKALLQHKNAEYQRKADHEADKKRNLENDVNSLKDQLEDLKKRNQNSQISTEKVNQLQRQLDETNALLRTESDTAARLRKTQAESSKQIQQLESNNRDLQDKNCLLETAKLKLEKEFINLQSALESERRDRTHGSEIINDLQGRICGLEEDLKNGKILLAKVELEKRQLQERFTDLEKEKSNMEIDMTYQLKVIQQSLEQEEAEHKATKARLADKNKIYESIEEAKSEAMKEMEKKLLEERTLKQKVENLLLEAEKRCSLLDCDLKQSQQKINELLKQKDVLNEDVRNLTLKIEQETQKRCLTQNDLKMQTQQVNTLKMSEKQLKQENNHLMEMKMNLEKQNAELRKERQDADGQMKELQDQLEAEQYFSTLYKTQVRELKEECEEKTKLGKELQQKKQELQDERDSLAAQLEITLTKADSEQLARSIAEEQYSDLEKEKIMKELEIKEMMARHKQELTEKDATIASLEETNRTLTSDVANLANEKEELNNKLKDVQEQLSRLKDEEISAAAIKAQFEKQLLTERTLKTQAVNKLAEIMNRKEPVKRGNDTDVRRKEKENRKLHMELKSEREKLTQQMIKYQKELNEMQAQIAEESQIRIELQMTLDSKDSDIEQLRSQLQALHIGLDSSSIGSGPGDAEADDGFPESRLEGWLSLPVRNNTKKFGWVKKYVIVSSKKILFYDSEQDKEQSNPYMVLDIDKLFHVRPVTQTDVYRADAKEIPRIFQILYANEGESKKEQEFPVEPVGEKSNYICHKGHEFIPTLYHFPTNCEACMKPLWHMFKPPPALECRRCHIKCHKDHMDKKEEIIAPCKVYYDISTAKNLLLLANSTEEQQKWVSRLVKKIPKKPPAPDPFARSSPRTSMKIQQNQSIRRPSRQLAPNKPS
Chain of LIM domain kinase 2 (P53671 whole entry, the tested form may be a part): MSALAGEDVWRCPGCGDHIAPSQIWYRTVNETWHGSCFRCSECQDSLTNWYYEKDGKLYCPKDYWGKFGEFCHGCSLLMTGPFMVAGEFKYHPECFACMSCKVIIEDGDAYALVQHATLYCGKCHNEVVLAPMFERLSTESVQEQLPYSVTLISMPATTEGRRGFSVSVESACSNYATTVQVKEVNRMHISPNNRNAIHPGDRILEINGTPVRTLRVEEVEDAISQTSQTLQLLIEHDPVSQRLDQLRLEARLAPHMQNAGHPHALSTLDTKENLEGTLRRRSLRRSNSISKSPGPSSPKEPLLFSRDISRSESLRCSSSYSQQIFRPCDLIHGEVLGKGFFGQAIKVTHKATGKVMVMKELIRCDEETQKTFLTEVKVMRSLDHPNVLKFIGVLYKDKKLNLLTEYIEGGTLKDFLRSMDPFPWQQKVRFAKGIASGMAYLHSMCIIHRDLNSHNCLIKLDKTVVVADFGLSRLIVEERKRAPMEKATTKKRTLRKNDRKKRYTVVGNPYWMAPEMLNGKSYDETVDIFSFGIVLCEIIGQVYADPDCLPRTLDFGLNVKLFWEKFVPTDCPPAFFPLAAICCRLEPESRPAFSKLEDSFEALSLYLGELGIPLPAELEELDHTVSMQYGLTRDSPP
Chain of LIM domain kinase 1 (P53667 whole entry, the tested form may be a part): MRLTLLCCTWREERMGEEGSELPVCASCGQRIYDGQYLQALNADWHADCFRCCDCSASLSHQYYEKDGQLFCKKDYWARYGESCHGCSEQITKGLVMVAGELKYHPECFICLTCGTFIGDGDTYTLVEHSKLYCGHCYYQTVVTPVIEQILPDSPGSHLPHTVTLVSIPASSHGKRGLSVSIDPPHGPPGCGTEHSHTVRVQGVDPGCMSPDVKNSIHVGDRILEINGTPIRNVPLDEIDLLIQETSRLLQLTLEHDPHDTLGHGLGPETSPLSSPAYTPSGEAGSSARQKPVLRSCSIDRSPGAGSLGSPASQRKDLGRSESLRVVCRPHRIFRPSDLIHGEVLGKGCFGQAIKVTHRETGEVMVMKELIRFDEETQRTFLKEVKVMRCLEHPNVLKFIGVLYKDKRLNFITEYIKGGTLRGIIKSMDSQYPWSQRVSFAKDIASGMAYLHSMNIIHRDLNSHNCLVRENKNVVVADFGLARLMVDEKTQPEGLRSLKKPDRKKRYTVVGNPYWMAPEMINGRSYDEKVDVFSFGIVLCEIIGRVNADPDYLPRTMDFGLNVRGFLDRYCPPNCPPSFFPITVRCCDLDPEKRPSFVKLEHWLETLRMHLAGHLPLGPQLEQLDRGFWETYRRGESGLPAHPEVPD

| IC50 (LIM domain kinase 1) [nM] | IC50 (LIM domain kinase 2) [nM] | IC50 [1] [nM] | IC50 [2] [nM] | SMILES | IC50 [3] [nM] | EC50 [4] [nM] | EC50 [5] [nM] | Activity (Oryctolagus cuniculus) |
| --- | --- | --- | --- | --- | --- | --- | --- | --- |
| 16 | < 1 | < 1 | < 1 | COC(=O)c1cccc(NC(=O)C2(CN)CCN(c3ncnc4[nH]cc(C)c34)CC2)c1 | – | – | – | – |
| 27 | 1.5 | 8.9 | 24 | COC(=O)c1cccc(NC(=O)C2(CN(C)C)CCN(c3ncnc4[nH]cc(C)c34)CC2)c1 | – | – | – | – |
| 18 | 7.4 | 100 | 81 | COC(=O)c1cccc(NC(=O)C2(N)CCN(c3ncnc4[nH]cc(C)c34)CC2)c1 | – | – | – | – |
| 37 | 12 | 63 | 150 | COC(=O)c1cccc(NC(=O)C2(N(C)C)CCN(c3ncnc4[nH]cc(C)c34)CC2)c1 | – | – | – | – |
| 38 | < 1 | 7.9 | 5.4 | COC(=O)COc1cccc(NC(=O)C2(CN(C)C)CCN(c3ncnc4[nH]cc(C)c34)CC2)c1 | – | – | – | – |
| 57 | < 1 | 56 | 7 | COC(=O)Cc1cccc(NC(=O)C2(CN(C)C)CCN(c3ncnc4[nH]cc(C)c34)CC2)c1 | – | – | – | – |
| 41 | 7.7 | 7.2 | 2.7 | COC(=O)c1ccc(NC(=O)C2(CN(C)C)CCN(c3ncnc4[nH]cc(C)c34)CC2)cc1 | – | – | – | – |
| 50 | 2.1 | 41 | 5.8 | CCCOC(=O)c1cccc(NC(=O)C2(CN(C)C)CCN(c3ncnc4[nH]cc(C)c34)CC2)c1 | – | – | – | – |
| 41 | 2.2 | 53 | 22 | Cc1c[nH]c2ncnc(N3CCC(CN(C)C)(C(=O)Nc4cccc(C(=O)OC(C)C)c4)CC3)c12 | – | – | – | – |
| 50 | 4.6 | 137 | 24 | CCC(C)OC(=O)c1cccc(NC(=O)C2(CN(C)C)CCN(c3ncnc4[nH]cc(C)c34)CC2)c1 (stereo not given) | – | – | – | – |
| 7.6 | < 1 | 16 | 2.2 | C#CCOC(=O)c1cccc(NC(=O)C2(CN(C)C)CCN(c3ncnc4[nH]cc(C)c34)CC2)c1 | – | – | – | – |
| 23 | 13 | 1.8 | 1.1 | COC(=O)c1cccc(NC(=O)C2(CN(C)C)CCN(c3ncnc4[nH]ccc34)CC2)c1 | – | – | – | – |
| 282 | 193 | 62 | 5.1 | COC(=O)c1cccc(NC(=O)C2(CN(C)C)CCN(c3ncnc4[nH]ncc34)CC2)c1 | – | – | – | – |
| 65 | 274 | 11 | 3.8 | COC(=O)c1cccc(NC(=O)C2(CN(C)C)CCN(c3ccnc4[nH]ncc34)CC2)c1 | – | – | – | – |
| 1000 | 1860 | > 10000 | 1130 | COC(=O)c1cccc(NC(=O)C2(CN(C)C)CCN(c3ncnc4c3CC(=O)N4)CC2)c1 | – | – | – | – |
| 31 | 9.6 | 67 | 69 | COC(=O)c1cccc(NC(=O)C2(N)CCN(c3ncnc4[nH]ccc34)CC2)c1 | – | – | – | – |
| > 1000 | > 10000 | > 1000 | > 1000 | COC(=O)c1cccc(NC(=O)C2(N)CCN(c3ccncn3)CC2)c1 | – | – | – | – |
| 945 | 4560 | 2060 | > 1000 | COC(=O)c1cccc(NC(=O)C2(N)CCN(c3cc(N)ncn3)CC2)c1 | – | – | – | – |
| > 1000 | > 10000 | 416 | > 1000 | COC(=O)c1cccc(NC(=O)C2(N)CCN(c3ccnc(N)n3)CC2)c1 | – | – | – | – |
| 239 | 494 | > 1000 | > 1000 | COC(=O)c1cccc(NC(=O)C2(N)CCN(c3cc(NC(C)=O)ncn3)CC2)c1 | – | – | – | – |
| > 10000 | > 10000 | > 1000 | > 1000 | COC(=O)c1cccc(NC(=O)C2(N)CCN(c3ccnc(NC(C)=O)n3)CC2)c1 | – | – | – | – |
| 25 | 4 | 2.5 | < 1 | COC(=O)c1cccc(NC(=O)C2(CN(C)C)CCN(c3ncnc4[nH]cc(C#N)c34)CC2)c1 | – | – | – | – |
| 20 | 2.8 | 5.7 | < 1 | COC(=O)c1cccc(NC(=O)C2(CN(C)C)CCN(c3ncnc4[nH]cc(F)c34)CC2)c1 | – | – | – | – |
| 23 | 8 | 652 | 332 | COC(=O)c1cccc(NC(=O)C2(CN(C)C)CCN(c3ncnc4[nH]c(C)cc34)CC2)c1 | – | – | – | – |
| 26 | 1.6 | > 1000 | > 1000 | COC(=O)c1cccc(NC(=O)C2(CN(C)C)CCN(c3ncnc4[nH]c(C)c(C)c34)CC2)c1 | > 1000 | > 10000 | – | – |

| SMILES | IC50 (LIM domain kinase 1) [nM] | IC50 (LIM domain kinase 2) [nM] | IC50 [1] [nM] | IC50 [2] [nM] | IC50 [3] [nM] | EC50 [4] [nM] | EC50 [5] [nM] | Activity (Oryctolagus cuniculus) |
| --- | --- | --- | --- | --- | --- | --- | --- | --- |
| Cc1c[nH]c2ncnc(N3CCC(CN(C)C)(C(=O)Nc4cccc(OC(=O)N(C)C)c4)CC3)c12 | 19 | < 1 | 40 | 2.6 | – | – | – | – |
| Cc1[nH]c2ncnc(N3CCC(CN(C)C)(C(=O)Nc4cccc(OC(=O)N(C)C)c4)CC3)c2c1C | 22 | 1.4 | > 1000 | > 1000 | > 1000 | > 10000 | 9 | – |
| Cc1c[nH]c2ncnc(N3CCC(CN)(C(=O)Nc4cccc(OC(=O)N(C)C)c4)CC3)c12 [LX-7101] | – | 1.6 | 10 | < 1 | < 1 | 2300 | 8.7 | Toxic |
